Measured values published in patent US20220362299A1, “ENGINEERED NATURAL KILLER CELLS AND METHODS FOR USING THE SAME IN IMMUNOTHERAPY AND AUTOPHAGY INHIBITON TECHNIQUES” (Purdue Research Foundation, priority 2019, published 2022).

Experiments:
pNK cells [1] = assay: Effect of adenosine on pNK cell viability (CCK-8) and NKG2D expression (flow cytometry); format: cell-based, human; settings: 1000 μM adenosine, 24 h
Method: To verify this, pNK cells were seeded into a 24-well plate at a density of 5×10^5 cells/well in 500 μL medium. Adenosine was then added to a final concentration of 1000 μM. After 24 h, the cells were collected and their viability (%) was determined via a CCK-8 assay (subpart A of FIG. 2). The NKG2D expression (% and MFI) was determined by flow cytometry (subpart B of FIG. 2). […] These findings support that there is a need to increase NKG2D expression on NK cells through engineering.

pNK cells [2] = assay: Transwell BBB migration assay of pNK cells; format: cell-based, human; settings: 100 ng/mL in lower chamber, 6 hours
Method: To determine involvement of CCL5 and CXCL10 in the migration of NK cells, the migration of activated pNK cells toward CCL5 and CXCL10 gradients was then tracked using an in vitro BBB model setup by a direct contact co-culture of primary human astrocytes and […] human cerebral microvessel endothelial cells (FIG. 12, subpart G).
An in vitro direct contact co-culture blood-brain barrier (BBB) model was established as previously described^53. Briefly, human astrocytes were seeded at a density of 4×10^4 cells/cm^2 into 24-well Transwell® inserts (pore size 5 μm) pre-coated with 2 μg/cm^2 poly-L-lysine and allowed to proliferate/differentiate for 48 hours in media. Media was then removed and the hCMEC/D3 cells suspended into EBM-2 media were seeded at a density of 1×10^5 cells/cm^2.
The co-culture was grown in EBM-2 with media changes every other day for an additional 7 days before studies were conducted. 600 μL of RPMI1640 medium supplemented with 1% FBS containing recombinant CCL5 or CXCL10 at 100 ng/mL was placed in the lower chamber of the Transwell® plate. Activated pNK cells (5×10^5) in 100 μL RPM11640 medium supplemented with 1% FBS were placed into the upper chamber (5-μm pore size). After incubation for 6 hours at 37° C. and 5% CO2, the number of pNK cells that migrated into the lower chamber was determined by flow cytometry. […]

GBM43 cells = assay: ELISA of CCL5 and CXCL10 in supernatant of GBM43 cells; format: cell-based, human; settings: with CQ 50 μM, 24 h
Source text: To evaluate changes in the protein levels of these chemokines and gain more insight into the underlying molecular mechanisms, chemokine concentrations were quantified in the conditioned media of CQ-treated GBM43 cells using ELISA in absence and presence of various pharmacological inhibitors driving signaling pathways for these chemokines. This included the PI3K inhibitor LY294002, NF-κB inhibitor BAY11-7082 and JNK inhibitor SP600125.
More specifically, to measure secreted CCL5 and CXCL10, GBM43 cells were treated with CQ at a final concentration of 50 μM in presence or absence of various small molecule inhibitors, including LY294002, BAY11-7082 and SP600125 for 24 hours. Supernatants were collected and the levels of CCL5 and CXCL10 were quantified using Human CCL5 and CXCL10 Biolegend-ELISA MAX™ Deluxe Sets according to the manufacturer's directions. To look at the levels of multiple chemokines secretion from GBM43 cells, the cell culture supernatants were also collected and all the selected targets were determined with the chemokine array provided by Eve Technologies (Calgary, Canada).

[3] = target: T1, CD73 (ecto-5'-nucleotidase, NT5E) on patient-derived GBM43 glioblastoma cells (human, UniProt P21589 27-549); assay: immunofluorescence (Protein L) on sections of subcutaneous GBM43 xenograft tumors
T1 construct: whole, on cells; Endogenous surface CD73 of human patient-derived GBM43 cells, in culture or as xenograft tumors
T1 sequence (looked up): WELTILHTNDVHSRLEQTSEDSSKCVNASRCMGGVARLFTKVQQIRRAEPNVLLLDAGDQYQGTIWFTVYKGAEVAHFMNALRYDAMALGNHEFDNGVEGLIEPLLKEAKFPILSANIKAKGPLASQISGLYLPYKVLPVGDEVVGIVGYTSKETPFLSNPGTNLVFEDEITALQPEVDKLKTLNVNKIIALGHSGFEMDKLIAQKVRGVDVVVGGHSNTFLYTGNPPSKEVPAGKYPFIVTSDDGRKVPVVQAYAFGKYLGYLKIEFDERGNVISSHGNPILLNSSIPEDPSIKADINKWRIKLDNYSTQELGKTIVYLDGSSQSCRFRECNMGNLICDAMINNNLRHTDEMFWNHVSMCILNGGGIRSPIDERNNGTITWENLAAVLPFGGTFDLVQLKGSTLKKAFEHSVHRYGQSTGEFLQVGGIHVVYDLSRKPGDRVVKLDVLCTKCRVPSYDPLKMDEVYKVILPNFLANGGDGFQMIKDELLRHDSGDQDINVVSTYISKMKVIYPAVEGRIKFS

CD73 = CD73 activity of GBM43 cells (AMP hydrolysis, malachite green phosphate assay); format: cell-based, human
Method: To test for CD73 activity and its ability to generate adenosine, GBM43 cells were seeded at 2×10^4 cells per well in a 96-well plate in complete DMEM. After overnight incubation, GBM43 cells were incubated with anti-CD73 scFv following uPA (100 nM)-mediated cleavage from either CD73.mCAR-NK92 or CD73.mCAR-pNK cells during incubation for 6 hours. Then, the cell medium was removed and cells were rinsed three times with phosphate-free buffer (117 mM NaCl, 5.3 mM KCl, 1.8 mM MgCl2, 26 mM NaHCO3, 10 mM glucose, pH 7.4, diluted in ddH2O). AMP (250 μM final), diluted in phosphate-free buffer, was added and incubated for 10 min at 37° C. Finally, the phosphate (Pi) concentrations resulting from AMP hydrolysis were measured using a malachite green phosphate assay kit following the manufacturer's instructions.

Q: Which “cell viability of pNK cells” value (pNK cells [1]; CCK-8) does the source give for Nc1ncnc2c1ncn2[C@@H]1O[C@H](CO)[C@@H](O)[C@H]1O [adenosine] here?
A: clear negative affect

Q: What about the “NKG2D expression on pNK cells” value (pNK cells [1]; flow cytometry) of the same molecule?
A: decreased

Q: Which “migration of activated pNK cells along ligand gradient across in vitro BBB” value (pNK cells [2]) does the source give for CXCL10: Recombinant human CXCL10 here?
A: significantly increased

Q: Cc1ccc(S(=O)(=O)/C=C/C#N)cc1 [BAY11-7082] was tested. Which “inhibition of the CQ-elevated production of CCL5 and CXCL10” value (GBM43 cells) did it give?
A: significantly inhibited

B1: CCL5: Recombinant human RANTES (CCL5) (protein, UniProt P13501 24-91, looked up)
C-C motif chemokine 5: SPYSSDTTPCCFAYIARPLPRAHIKEYFYTSGKCSNPAVVFVTRKNRQVCANPEKKWVREYINSLEMS
Q: How did the “migration of activated pNK cells along ligand gradient across in vitro BBB” value (pNK cells [2]) turn out when B1 was run?
A: significantly increased

B2: anti-CD73 scFv cleaved by uPA or tumor-associated proteases from Construct 1 (CD73.mCAR) on engineered NK cells (scFv)
scFv: EVQLLESGGGLVQPGGSLRLSCAASGFTFSSYAYSWVRQAPGKGLEWVSAISGSGGRTYYADSVKGRFTISRDNSKNTLYLQMNSLRAEDTAVYYCARLGYGRVDEWGRGTLVTVSSGGGGSGGGGSGGGGSQSVLTQPPSASGTPGQRVTISCSGSLSNIGRNPVNWYQQLPGTAPKLLIYLDNLRLSGVPDRFSGSKSGTSASLAISGLQSEDEADYYCATWDDSHPGWTFGGGTKLTVLGGGGSGGGGSGGGGS
notes: Soluble fragment released from CD73.mCAR-NK92 or CD73.mCAR-pNK cells, by 100 nM uPA in vitro or by tumor proteases in vivo; also called αCD73 scFv; aCD73 scFv; not shown: the cleavage site is
Q: Does B2 bind [3]?
A: binds

B3: anti-CD73 scFv: CD73-blocking single chain antibody fragment released from the CAR by uPA / tumor-associated protease cleavage (protein)
scFv: EVQLLESGGGLVQPGGSLRLSCAASGFTFSSYAYSWVRQAPGKGLEWVSAISGSGGRTYYADSVKGRFTISRDNSKNTLYLQMNSLRAEDTAVYYCARLGYGRVDEWGRGTLVTVSSGGGGSGGGGSGGGGSQSVLTQPPSASGTPGQRVTISCSGSLSNIGRNPVNWYQQLPGTAPKLLIYLDNLRLSGVPDRFSGSKSGTSASLAISGLQSEDEADYYCATWDDSHPGWTFGGGTKLTVLGGGGSGGGGSGGGGS
modifications: left off: small tags and cut ends
Q: Which “production of extracellular adenosine by GBM43 cells (CD73 activity)” value (CD73; scFv cleaved by uPA from CD73.mCAR-NK92 cells) does the source give for B3 here?
A: significantly decreased production

Q: What about the “ability of GBM43 cells to produce adenosine (CD73 activity)” value (CD73; scFv cleaved from CD73.mCAR-pNK cells) of the same molecule?
A: significantly reduced ability to produce adenosine
